Among the data in the supplement of paper PMC3493320 are IC50 values, retold here.

pIC50: −log10 of the molar value.

For the assay, the system named is NCI-H295R. Description: IC50 (antiproliferative, ATP content). The conditions noted are these: 48 h. Put shortly:
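Following overnight culture of adrenocortical carcinoma cells (1500 per well) in 1536-well plates with serum-free ITS-supplemented DMEM, library compounds were pin-transferred at 8 final concentrations from 0.6 nM to 46 µM. Incubation lasted 48 h at 37 °C, 5% CO2, and the CellTiter-Glo signal was read after 20 min at room temperature. Data were fitted with a four-parameter logistic model. Each IC50 came from that fit after normalisation to vehicle and positive-control wells, and compounds without a concentration response were reported as above the top dose.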
The term pIC50 denotes −log10 of the IC50, conventionally taken in molar units. `CN1CC(=O)N2[C@H](c3ccc4c(c3)OCO4)c3[nH]c4ccccc4c3C[C@@H]2C1=O` had a pIC50 below 4.34.
In turn, `Nc1ncnc2c1ncn2CCOCP(=O)(O)O` gave a pIC50 below 4.34.
The value for `C[N+]1([O-])[C@@H]2CC[C@H]1C[C@@H](OC(=O)C(CO)c1ccccc1)C2.Cl` (stereo partly drawn) was below 4.34; that for `Cl.O=C1c2cccc3c2[C@H](CCC3)CN1[C@@H]1CN2CCC1CC2` was below 4.34.
For the compound `O=P1(NCCCl)OCCCN1CCCl` (stereo not drawn), the pIC50 was below 4.34.
As to `CC(=O)N(O)CCCCCNC(=O)CCC(=O)N(O)CCCCCNC(=O)CCC(=O)N(O)CCCCCN.CS(=O)(=O)O`, the pIC50 is below 4.34.
Compound `CC(C)NCC(O)COc1ccccc1-n1cccc1` (stereo not drawn) showed a pIC50 below 4.34.
As to `CC1OC(C)OC(C)O1` (stereo not drawn), the pIC50 is below 4.34.
For the compound `CCCCCCCCOc1ccc(C(=O)c2ccccc2)c(O)c1`, the pIC50 was below 4.34.
The value for `CCN(CC)C(=O)c1ccc(O)c(OC)c1` was below 4.34.
The value for `CCOC(=O)c1ncn2c1CN(C)C(=O)c1cc(F)ccc1-2` was below 4.34; that for `Cc1ccccn1` was below 4.34; that for `CC(O)CN(CCN(CC(C)O)CC(C)O)CC(C)O` (stereo not drawn) was below 4.34.
The value for `CO/N=C(\C(=O)N[C@@H]1C(=O)N2C(C(=O)O)=C(CSc3nnnn3C)CS[C@H]12)c1csc(N)n1.CO/N=C(\C(=O)N[C@@H]1C(=O)N2C(C(=O)O)=C(CSc3nnnn3C)CS[C@H]12)c1csc(N)n1.Cl` was below 4.34; that for `NC(=O)c1ncn([C@@H]2O[C@H](CO)[C@@H](O)[C@H]2O)n1` was below 4.34; that for `CC(C(=O)O)c1ccc2c(c1)Cc1cccnc1O2` (stereo not drawn) was below 4.34.
Turning to `O=C(CCCN1CCN2CCCC2C1)c1ccc(F)cc1` (stereo not drawn), the pIC50 is below 4.34.
For the compound `FCOC(C(F)(F)F)C(F)(F)F`, the pIC50 is below 4.34.
The same measure for `CSCCC(N)C(=O)O` (stereo not drawn): below 4.34.
The value for `C[C@H]1O[C@H](O[C@H]2[C@H](O)[C@@H](O)[C@@H](O[C@H]3[C@H](O)[C@@H](O)[C@H](O)O[C@@H]3CO)O[C@@H]2CO)[C@H](O)[C@@H](O)[C@@H]1N[C@H]1C=C(CO)[C@@H](O)[C@H](O)[C@H]1O` was below 4.34; that for `CN1CCN(c2c(F)cc3c(=O)c(C(=O)O)cn4c3c2OCN4C)CC1` was below 4.34.
The same measure for `O=C3N1/C(=C(\CS[C@@H]1[C@@H]3NC(=O)Cc2ccccc2CN)CSc4nnnn4CC(O)=O)C(O)=O`: below 4.34; for `Cc1ncsc1CCCl`: below 4.34.
In turn, `N#Cc1nn(-c2c(Cl)cc(C(F)(F)F)cc2Cl)c(N)c1S(=O)C(F)(F)F` (stereo not drawn) showed a pIC50 below 4.34.
The value for `C[C@H](N)C(=O)N[C@@H](C)P(=O)(O)O` was below 4.34; that for `CC1(C)[C@@H](OC(=O)CCC(=O)[O-])CC[C@]2(C)[C@H]3C(=O)C=C4[C@@H]5C[C@@](C)(C(=O)[O-])CC[C@]5(C)CC[C@@]4(C)[C@]3(C)CC[C@@H]12.[Na+].[Na+]` was below 4.34; that for `CCOC(=O)C1=C(C)NC(C)=C(C(=O)OC)C1c1cccc([N+](=O)[O-])c1` (stereo not drawn) was below 4.34.
The value for `Cl.O=C(OCCN1CCCCC1)C(O)(c1ccccc1)c1ccccc1` was below 4.34.
The same measure for `CC1=C(C=C/C(C)=C/C=C/C(C)=C/CO)C(C)(C)CCC1`: below 4.34; for `C[N+](C)(C)CCOC(=O)CCC(=O)OCC[N+](C)(C)C.[Cl-].[Cl-]`: below 4.34; for `CCC(=O)Nc1ccc(O)cc1`: below 4.34.
With `C[C@H](O)CN(C)C`, the pIC50 was below 4.34.
The same measure for `CC(CNC(=O)c1cccnc1)NC(=O)c1cccnc1` (stereo not drawn): below 4.34.
The same measure for `O=C1C(O)=C(O)C(=O)C(O)=C1O`: below 4.34; for `COc1ccccc1N1CCN(CCCC(=O)c2ccc(F)cc2)CC1`: below 4.34.
The same measure for `CCN(CC)CCNC(=O)COc1ccc(Cl)cc1`: below 4.34.
For `CNC(=O)C(N)CSC(C)C1=C(C)c2cc3[n-]c(cc4nc(cc5[n-]c(cc1n2)c(C)c5CCC(=O)O)C(CCC(=O)O)=C4C)c(C)c3C(C)SCC(N)C(=O)NC.[Fe+2]` (stereo not drawn), the pIC50 is below 4.34.
The value for `O=C1C(C(O)=CC(O)=C2)=C2O[C@H]([C@](C=C5)=CC3=C5O[C@H](CO)[C@@H]([C@]4=CC(OC)=C(O)C=C4)O3)[C@H]1O` was below 4.34; that for `Cl.OC(CCN1CCCC1)(c1ccccc1)C1CCCCC1` (stereo not drawn) was below 4.34.
The same measure for `CC(Cc1ccccc1)(NC(=O)CN)c1ccccc1.Cl` (stereo not drawn): below 4.34; for `C=CCCCCCCCCC(=O)O`: below 4.34.
`F[C@]2([C@](C)3CC4)[C@@H](O)C[C@]([C@](C5)([H])[C@@]([H])2CCC3=CC4=O)(C)[C@@]1([C@](CCl)=O)[C@@H]5OC(C)(C)O1` showed a pIC50 below 4.34.
The same measure for `O=c1[n-]c(=O)n(Cl)c(=O)n1Cl.[Na+]`: below 4.34; for `CC1(C)S[C@@H]2[C@H](NC(=O)C(N)c3ccccc3)C(=O)N2[C@H]1C(=O)OC1OC(=O)c2ccccc21.Cl` (stereo partly drawn): below 4.34; for `O=S(=O)(O)O.[2H]C([2H])([2H])[C@H](N)Cc1ccccc1.[2H]C([2H])([2H])[C@H](N)Cc1ccccc1`: below 4.34.
In the case of `Cc1ccc(S(=O)(=O)[N-]Cl)cc1.O.O.O.[Na+]`, the pIC50 was below 4.34.
As for `CNCCCC1c2ccccc2C=Cc2ccccc21.Cl`, the pIC50 is below 4.34.
The same measure for `O[C@H](C)[C@@H](N[C@]([C@@H]2C[C@@H](CCC)CN2C)=O)[C@@H]1[C@H](O)[C@H](O)[C@@H](O)[C@@H](SC)O1.Cl`: below 4.34; for `[Na+].[O-]Cl`: below 4.34.
For the compound `CCOC(=O)C1=C[C@@H](OC(CC)CC)[C@H](NC(C)=O)[C@@H](N)C1.O=C(O)C(O)C(O)C(=O)O`, the pIC50 is below 4.34.
For the compound `O=C([O-])C[C@H](O)C[C@H](O)/C=C/c1c(C2CC2)nc2ccccc2c1-c1ccc(F)cc1.O=C([O-])C[C@H](O)C[C@H](O)/C=C/c1c(C2CC2)nc2ccccc2c1-c1ccc(F)cc1.[Ca+2]`, the negative-log IC50 (pIC50) was below 4.34.
The value for `Cn1c(=O)c2c(ncn2CC(O)CO)n(C)c1=O` (stereo not drawn) was below 4.34.
The same measure for `CC[C@H]1OC(=O)[C@H](C)[C@@H](O[C@H]2C[C@@](C)(OC)[C@@H](O)[C@H](C)O2)[C@H](C)[C@@H](O[C@@H]2O[C@H](C)C[C@H](N(C)C)[C@H]2O)[C@](C)(O)C[C@@H](C)C(=NOCOCCOC)[C@H](C)[C@@H](O)[C@]1(C)O`: below 4.34; for `C=C1[C@@H]2CC[C@@H](C2)C1(C)C`: below 4.34; for `CC(=O)N[C@H]1[C@@H](O[C@@H]2C(C(=O)[O-])C[C@@H](O[C@H]3[C@H](C)[C@@H](NS(=O)(=O)O)[C@@H](OC4C(C(=O)[O-])O[C@@H](OC5[C@H]6CO[C@H](O6)[C@H](NS(=O)(=O)[O-])[C@H]5O)[C@H](O)[C@H]4O)O[C@@H]3COS(=O)(=O)O)[C@H](O)[C@H]2O)O[C@H](COS(=O)(=O)O)[C@@H](O[C@@H]2OC(C(=O)[O-])=C[C@H](O)[C@H]2OS(=O)(=O)O)[C@@H]1O.[Na+].[Na+].[Na+].[Na+]` (stereo partly drawn): below 4.34.
The value for `CC1=Nc2ccc(Cl)cc2S(=O)(=O)N1` was below 4.34.
On to `O=C(O)c1ccc(NC2OC[C@@H](O)[C@H](O)[C@H]2O)cc1` (stereo partly drawn), for which the pIC50 was below 4.34.
The same measure for `CCNC1(c2cccs2)CCCCC1=O.Cl` (stereo not drawn): below 4.34; for `CN1CCN2c3ncccc3Cc3ccccc3C2C1` (stereo not drawn): below 4.34; for `CC(=O)[C@]2(CC[C@H]3[C@@H]4C[C@H](C)\C1=C\C(=O)CC[C@]1(C)[C@H]4CC[C@]23C)OC(C)=O`: below 4.34.
The same measure for `CCC1(C)CC(=O)NC(=O)C1`: below 4.34; for `Cc1oncc1C(=O)Nc1ccc(C(F)(F)F)cc1`: below 4.34; for `O=C1NC(=O)C(c2ccccc2)(c2ccccc2)N1`: below 4.34.
The same measure for `[O]=[Bi][O]C(=O)[O][Bi]=[O]`: below 4.34; for `Cc1cccc(C)c1NC(=O)CN1CCCC1`: below 4.34; for `CC(=O)OCC1=C(C(=O)O)N2C(=O)[C@@H](N)[C@H]2SC1`: below 4.34.
In turn, `Cc1ncc(COP(=O)(O)O)c(C=O)c1O.O` gave a negative logarithm of the IC50 (pIC50) below 4.34.
Turning to `CC(C)C[C@@H](N)C(=O)O`, the pIC50 is below 4.34.
Compound `COc1ccc2[nH]cc(CCNC(C)=O)c2c1` showed a pIC50 below 4.34.
The same measure for `Cl.O=C1OC(CN2CCOCC2)CN1N=Cc1ccc([N+](=O)[O-])o1` (stereo not drawn): below 4.34; for `CC(=O)OCC1=C(C(=O)O)N2C(=O)[C@@H](NC(=O)Cc3ccccc3)[C@H]2SC1`: below 4.34.
The same measure for `CC(C)C[C@H](CN)CC(=O)O`: below 4.34; for `C#CCN(C)CCCOc1ccc(Cl)cc1Cl.Cl`: below 4.34.
The value for `O=[C@@](OCN2C(N(CC#C)CC2=O)=O)[C@H]1C(C)(C)[C@@H]1\C=C(C)/C` was below 4.34; that for `CCCCOC(=O)c1ccc(O)cc1` was below 4.34; that for `O=Cc1ccccc1C=O` was below 4.34.
As to `Cc1ccc2nc(N)[nH]c(=O)c2c1Sc1ccncc1.Cl.Cl`, the pIC50 was below 4.34.
The same measure for `CC(=O)OCC(COC(C)=O)OC(C)=O`: below 4.34; for `C[N+]1(C)[C@@H]2CC[C@H]1C[C@@H](OC(=O)C(CO)c1ccccc1)C2.O=[N+]([O-])[O-]` (stereo partly drawn): below 4.34; for `CCOC(=O)[N-]c1c[n+](N2CCOCC2)no1`: below 4.34.
In turn, `CN(C)CCOC(c1ccccc1)c1ccccc1` gave a negative logarithm of the IC50 (pIC50) below 4.34.
In the case of `O[C@]([C@@H](CC3)CC[C@@]3(C#N)C(C=C1OC2CCCC2)=CC=C1OC)=O`, the pIC50 was below 4.34.
The value for `C[C@]12CCC(=O)C=C1CC[C@H]1[C@@H]3CC[C@](O)(C(=O)CO)[C@@]3(C)C[C@H](O)[C@@]12F` was below 4.34.
